Data taken from patent US20160361298A1, “METHODS AND COMPOSITIONS FOR TREATING CANCER” (Globavir BioSciences, Inc., priority 2015, published 2016).
Like-named read-outs stand apart in the source and are kept apart here.

Key:
[1] = biological target: T1, Recombinant TDO (Homo sapiens, UniProt P48775); assay: TDO Inhibition Assay (recombinant enzyme, absorbance at 321 nm); format: biochemical; details: for activity at 1 µM: 1 μM test compound, read-out: TDO Inhibition Assay Screening (Activity, %) 1 μM; for activity at 10 µM: read-out: TDO Inhibition Assay Screening (Activity, %) 10 μM
T1 construct: Recombinant TDO or IDO was diluted to 16 ng/uL and 50 uL loaded into wells of a 96-well plate
Method: Inhibition of IDO by TDO/IDO test inhibitors was assessed in vitro. A substrate mixture was prepared by mixing equal volumes of 80 mM ascorbic acid diluted in 0.405 M Tris, pH 8.0 and a mixture of […] L-tryptophan, 9,000 units/mL catalase and 40 uM methyene blue. Recombinant TDO or IDO was diluted to 16 ng/uL and 50 uL loaded into wells of a 96-well plate. The reaction was started by the addition of 50 uL substrate mixture. The plate was read in kinetic mode at 321 nm for 5 minutes. The rate of increase of absorbance measured in the absence of a TDO/IDO inhibitor is taken as the maximum rate of enzymatic activity.

[2] = biological target: T2, Recombinant IDO (Homo sapiens, UniProt P14902); assay: IDO Inhibition Assay (recombinant enzyme, absorbance at 321 nm); format: biochemical; details: for activity at 1 µM: 1 μM test compound, read-out: IDO Inhibition Assay Screening (Activity, %) 1 μM; for activity at 10 µM: read-out: IDO Inhibition Assay Screening (Activity, %) 10 μM
T2 construct: Recombinant TDO or IDO was diluted to 16 ng/uL and 50 uL loaded into wells of a 96-well plate
Method: Inhibition of IDO by TDO/IDO test inhibitors was assessed in vitro. […] Recombinant TDO or IDO was diluted to 16 ng/uL and 50 uL loaded into wells of a 96-well plate. The reaction was started by the addition of 50 uL substrate mixture. […] The rate of increase of absorbance measured in the absence of a TDO/IDO inhibitor is taken as the maximum rate of enzymatic activity.

[3] = test system: HuT78 (human CTCL cell line); assay: Cancer cell cytotoxicity, CellTiter-Glo Luminescent Cell Viability Assay; details: HuT78, read-out: IC50 (μM) cancer cell cytotoxicity
Method: (§1) TDO/IDO test compounds were incubated with various cancer cell lines to determine the effect of the test compounds on cancer cell death. The CellTiter-Glo Luminescent Cell Viability Assay was used to determine cell cytotoxicity by determining the number of viable cells in culture based on quantitation of ATP, which signals the presence of metabolically active cells.

[4] = test system: U87MG (human glioblastoma); assay: as above; details: U-87 MG, read-out: IC50 (μM) cancer cell cytotoxicity
Method: as §1

[5] = test system: SCC4 (human squamous cell carcinoma); assay: as above; details: SCC-4, read-out: IC50 (μM) cancer cell cytotoxicity
Method: as §1

[6] = test system: HT29 (human colorectal adenocarcinoma); assay: as above; details: HT-29, read-out: IC50 (μM) cancer cell cytotoxicity
Method: as §1

[7] = test system: CT26 (murine colon); assay: as above; details: Mus musculus, CT26, read-out: IC50 (μM) cancer cell cytotoxicity
Method: as §1

[8] = test system: Pano2 (murine pancreatic); assay: as above; details: Mus musculus, PanO2, read-out: IC50 (μM) cancer cell cytotoxicity
Method: as §1

[9] = test system: GL261 (murine glioma); assay: as above; details: Mus musculus, GL261, read-out: IC50 (μM) cancer cell cytotoxicity
Method: as §1

[10] = 10 μM test compound, remaining enzyme activity
[11] = read-out: TDO Inhibition Assay Dose Resp. (IC50)
[12] = read-out: IDO Inhibition Assay Dose Resp. (IC50)

T2 sequence (P14902 whole entry): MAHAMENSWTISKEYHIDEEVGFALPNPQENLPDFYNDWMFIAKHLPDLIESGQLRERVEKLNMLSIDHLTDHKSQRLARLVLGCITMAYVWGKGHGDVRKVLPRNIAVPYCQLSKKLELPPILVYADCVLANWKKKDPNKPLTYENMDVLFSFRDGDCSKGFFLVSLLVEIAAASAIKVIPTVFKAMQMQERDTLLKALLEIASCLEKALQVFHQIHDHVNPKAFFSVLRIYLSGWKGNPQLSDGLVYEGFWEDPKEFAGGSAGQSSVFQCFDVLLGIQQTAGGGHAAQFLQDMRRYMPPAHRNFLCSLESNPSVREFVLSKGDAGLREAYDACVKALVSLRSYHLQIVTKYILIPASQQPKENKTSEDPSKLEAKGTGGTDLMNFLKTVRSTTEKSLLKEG
T1 sequence (P48775 whole entry): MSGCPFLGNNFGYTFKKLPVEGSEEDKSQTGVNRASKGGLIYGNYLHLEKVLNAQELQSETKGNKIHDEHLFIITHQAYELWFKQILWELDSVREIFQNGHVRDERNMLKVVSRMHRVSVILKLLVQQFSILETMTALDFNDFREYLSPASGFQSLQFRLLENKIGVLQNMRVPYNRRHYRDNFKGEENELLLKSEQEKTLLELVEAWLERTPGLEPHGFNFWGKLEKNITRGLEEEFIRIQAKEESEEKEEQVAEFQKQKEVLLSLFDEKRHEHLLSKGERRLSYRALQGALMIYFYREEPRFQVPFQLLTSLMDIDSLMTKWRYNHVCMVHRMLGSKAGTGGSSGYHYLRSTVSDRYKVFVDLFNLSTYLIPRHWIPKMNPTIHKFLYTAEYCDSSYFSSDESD

Row | SMILES | activity at 1 µM ([1]; remaining enzyme activity) [%] | activity at 10 µM [1, 10] [%] | IC50 [1, 11] [µM] | activity at 1 µM ([2]; remaining enzyme activity) [%] | activity at 10 µM [2, 10] [%] | IC50 [2, 12] [µM] | IC50 [3] [µM] | IC50 [4] [µM] | IC50 [5] [µM] | IC50 [6] [µM] | IC50 [7] [µM] | IC50 [8] [µM] | IC50 [9] [µM] | IC50 [2] [µM] | activity at 10 µM [1] [%] | activity at 10 µM [2] [%] | IC50 [1] [µM]
1 | Clc1ccc(COC(Cn2ccnc2)c2ccc(Cl)cc2Cl)c(Cl)c1 (stereo not shown) [Miconazole] | 74 | 16 | 3.7 | 67 | 27 | – | – | – | – | – | – | – | – | 4.69 | – | – | –
2 | Clc1ccc(COC(Cn2ccnc2)c2ccc(Cl)cc2Cl)cc1 (stereo not shown) [Econazole] | 80 | 20 | 5.35 | 71 | 28 | – | – | – | – | – | – | – | – | 4.91 | – | – | –
3 | Clc1ccc(C(Cn2ccnc2)OCc2csc3c(Cl)cccc23)c(Cl)c1 (stereo not shown) [Sertaconazole] | 74 | 15 | 4.07 | 63 | 37 | – | 17.7 | 13.9 | – | 11.9 | 10.9 | 16.1 | 30.1 | 8.25 | – | – | –
4 | O=C(O)c1ccc(-n2nc(-c3ccccc3O)nc2-c2ccccc2O)cc1 [Deferasirox] | 107 | 69 | – | 90 | 85 | – | – | – | – | – | – | – | – | – | – | – | –
5 | NS(=O)(=O)NCCNc1nonc1C(=NO)Nc1ccc(F)c(Br)c1 [INCB024360] | – | – | – | – | – | – | 72.5 | – | – | 53.7 | 69.9 | 53.5 | 48.9 | – | – | – | –
6 | C=C(c1ccccc1OCc1cccc(Cl)c1)n1ccnc1 [Cloconazole] | – | – | 0.532 | – | – | – | 19.4 | 26.7 | 46.2 | 10.7 | 8.06 | 9.61 | 20.3 | – | 5 | 76 | –
7 | Clc1ccc(C(Cn2ccnc2)OCc2c(Cl)cccc2Cl)c(Cl)c1 (stereo not shown) [Isoconazole] | 58 | 17 | – | 76 | 53 | – | 15.7 | 63.9 | 83.8 | 14.8 | 14.8 | 12.6 | 15.6 | 14.6 | – | – | 4.12

Further lines, with some results ahead:

Row | activity at 1 µM ([1]; remaining enzyme activity) [%] | activity at 10 µM [1, 10] [%] | IC50 [1, 11] [µM] | activity at 1 µM ([2]; remaining enzyme activity) [%] | activity at 10 µM [2, 10] [%] | IC50 [2, 12] [µM] | SMILES | IC50 [3] [µM] | IC50 [4] [µM] | IC50 [5] [µM] | IC50 [6] [µM] | IC50 [7] [µM] | IC50 [8] [µM] | IC50 [9] [µM] | IC50 [2] [µM] | activity at 10 µM [1] [%] | activity at 10 µM [2] [%] | IC50 [1] [µM]
8 | 83 | 28 | 4.16 | 76 | 47 | 9.33 | Clc1ccc(C(Cn2ccnc2)OCc2ccsc2Cl)c(Cl)c1 (stereo not shown) [Tioconazole] | 12.1 | 26.1 | 28.2 | 18.2 | 14 | 22.2 | 27 | – | – | – | –
9 | 93 | 82 | 47 | 72 | 56 | 17.4 | CCC(C)n1ncn(-c2ccc(N3CCN(c4ccc(OCC5COC(Cn6cncn6)(c6ccc(Cl)cc6Cl)O5)cc4)CC3)cc2)c1=O (stereo not shown) [Itraconazole] | – | – | – | – | – | – | – | – | – | – | –
10 | 82 | 62 | – | 84 | 75 | – | O=C(Nc1ccc([N+](=O)[O-])cc1Cl)c1cc(Cl)ccc1O [Niclosamide] | – | – | – | – | – | – | – | – | – | – | –
11 | – | 5 | 1.05 | – | 83 | – | CC1=NN(c2ccc(C)c(C)c2)C(=O)/C1=N\Nc1cccc(-c2cccc(C(=O)O)c2)c1O [Eltrombopag] | – | – | – | – | – | – | – | – | – | – | –
12 | 89 | -34 | 2.73 | 85 | 56 | – | Clc1ccc(C(Cn2ccnc2)OCc2ccc(Sc3ccccc3)cc2)c(Cl)c1 (stereo not shown) [Fenticonazole] | 9.16 | 15.6 | 78.8 | 13.9 | 7.6 | 16.1 | 15.2 | – | – | – | –
13 | 89 | 43 | 9.33 | 99 | 88 | 63.4 | Clc1cccc(C(c2ccc3[nH]cnc3c2)n2ccnc2)c1 (stereo not shown) [Liarozole] | – | – | – | – | – | – | – | – | – | – | –
